{"source": "patent US6632797B2", "about": "“Method of treating angiogenesis” (priority 1996, dated 2003)", "key": {"[1]": {"test_system": "carrageenan-induced inflammation", "assay": "Carrageenan-induced paw inflammation in mice (plethysmometer)", "assay_type": "in vivo", "settings": "intravenous injection before carrageenan (64 mg/kg stated for PP35-405); after 3.5 hrs", "description": "Growth factors are implicated to participate in inflammatory conditions. Carrageenan (0.1 ml, 1%) was injected intraplantarly in one hind paw of two groups of mice, five animals in each group.\nAn intravenous injection of 64 mg/kg of 1,2-O-ethylene-β-D-fructopyranoside-2,3,4-trisphosphate (PP35-405) was administered immediately before the injection of carrageenan.\nInjection of carrageenan induces inflammation which is measured by comparing the increase in paw volume using a plethysmometer.\nIn a procedure similar to the one described in Example 8, an intravenous injection of 1,5-dideoxy-1,5-imino-N-(2-phenylethyl)arabinitol-2,3,4-trisphosphate (PP35-508) was administered.\nIn a procedure similar to the one described in Example 8, an intravenous injection of myo-inositol-1,2,6-tris(carboxymethyl phosphonate) (PP40-402) was administered. 3.5 hrs after the injection of carrageenan the inflammation was retarded with 32% in the group recieving PP40-402. Thus the administration of PP40-402 markedly reduces the inflammatory condition."}, "[2]": {"assay": "Binding constants to the polyamine spermine", "assay_type": "physicochemical", "settings": "1:1:5 complex; 0.1 M N-tetramethylbromide at 25° C.", "description": "The interaction between a polyamine, spermine and different triphosphorylated compounds were investigated in order to determin the binding constants. Spermine is a basic polyamine comprising domains of similar basicity to basic domains in growth factors. Spermine and the different phosphorylated compounds forms different complexes and the 1:1:5 complex was used as the complex for determination of binding constants.\nThe following binding constants, log Ks was determined in 0.1 M N-tetramethylbromide at 25° C.: […]"}, "[3]": {"test_system": "phosphatidyl inositol 3′ kinase (PI 3′-kinase)", "assay": "Interstitial fluid pressure (PIF) in rat hind paw, wortmannin-induced decrease", "assay_type": "in vivo, Wistar Möller rats", "parameters": "PIF (interstitial fluid pressure): dose or concentration left out as unconfirmed", "settings": "wortmannin in DMSO/saline, 5 μl subdermally; after 30 minutes; vehicle ca −0.7 mm Hg", "source_text": "The enzyme phosphatidyl inositol 3′ kinase (PI 3′-kinase) is implicated in a number of growth factor induced responses such as mitogenesis, chemotaxis, membrane ruffling and the balance between osteoclasts and osteoblasts. Furthermore it is known that inactivation of PI 3′ kinase leads to increased oedema formation expressed as a decrease of interstitial fluid pressure (PIF) in animal models.\nAn inhibitor of PI 3′ kinase such as wortmannin renders a decrease of PIF as a consequence of inactivation of PI 3′ kinase.\nThe measurements were performed on female Wistar Möller rats (200-250 g), anesthetized with pentobarbital (50 mg/kg i.p.).\nPIF was measured on the dorsal side of the hind paw with sharpened glass capillarier (tip diameter 2-7 μm) filled with 0.5 M NaCl coloured with Evans Blue and connected to a serve-controlled counter pressure system. The punctures were performed through intact skin using a stereomicroscope. The pipette-tip was located 0.3-0.5 mm below the skin. Pressure measurements were made 2.5-3.0 mm from the center of injection. The normal transcapillary pressure gradient is about 0.5 mm Hg.\nThree sets of experiments were performed with six animals in each set.\nIn the first set of experiment the vehicle for wortmannin, DMSO diluted in saline, 5 μl, was injected subdermally using a chromatography syringe. […]"}, "[4]": {"test_system": "HIV (viral isolates from HIV-infected patients) in peripheral blood mononuclear cells (PBMC)", "assay": "HIV infection of PBMC, HIV-antigen production by ELISA", "assay_type": "cell-based", "settings": "normalized HIV-antigen production at day 7, control 100", "description": "Growth factor activity is considered to be involved in the process of viral infections. Viral isolates from HIV-infected patients were used in order to induce an infection by adding peripheral blood mononuclear cells (PBMC) to a medium containing different concentrations of the sodium salt of D-3,4,5-tri-O-hexanoyl-myo-inositol-1,2,6-trisphosphate (PP10-202). 25 CCID50 (50% cell culture infections dose) of PBMC from HIV-infected patients were incubated with four different concentrations of PP10-202; 0.0625 mg/ml, 0.125 mg/ml, 0.250 mg/ml and 0.500 mg/ml. Another preparation, without any PP10-202 served as a control. The growth medium consisted of 10% fetal calf serum, […] glutamine, 100 IU/ml penicillin, 100 IU/ml streptomycin and 20 μg/ml gentamicin. The concentration of cells were 2×10^5 per ml. All preparations were incubated for 1 hour at 37° C.\nPBMCs from healthy donors were then added to the preparation. Before addition, these cells were stimulated for three days with phytohemagglutinin (PHA). 0.5×10^6 PHA-stimulated PBMCs were added to each preparation, followed by incubation for 3 hours at 37° C. After extensive washing the cells were resuspended in growth medium supplemented with 10 IU/ml of interleukin-2 and seeded in quadruplicates of 100.000 cells in a 96-well microtite plate before further cultivation for 7 days. The HIV-antigen production was assayed at the seventh day using an ELISA-technique."}, "[5]": {"test_system": "acetic acid-induced writhes", "assay": "Acetic acid writhing test (analgetic effect)", "assay_type": "in vivo, mice", "settings": "64 mg/kg intravenous, sodium salt; 10-minute observation", "description": "Two groups of mice, 10 animals per group, were used in order to investigate the analgetic effect of methyl α-D-rhamnopyranoside-2,3,4-trisphosphate (PP 35-406). The control group was given an intravenous dose of saline while the other group was given a dose of 64 mg/kg of the sodium salt of PP 35-406. Three minutes after intravenous dosing, each […] received an intraperitoneal injection of 1 ml of a 1% (w/w) solution of acetic acid. Directly after that procedure each animal was placed into individual observation chambers and the numbers of writhes elicited during the subsequent 10-minute period were recorded. After the observation period the animals were killed by cervical dislocation. The number of writhes during the observation period is an expression of the pain experienced by the animal. Percent protection was calculated as follows: […]((number of writhes in control group—number of writhes in treated animals)/(number of writhes in control group)."}}, "data": [{"compound": "O=C(O)CP(=O)(O)OC1C(O)C(O)C(O)C(OP(=O)(O)CC(=O)O)C1OP(=O)(O)CC(=O)O", "note": "(stereo not drawn) [PP40-402, myo-inositol-1,2,6-tris(carboxymethyl phosphonate)]", "values": [{"measurement": "inflammation retarded (increase in paw volume)", "setting": "[1]", "result": 32, "unit": "%"}]}, {"compound": "Methyl-6-O-butyl-α-D-mannopyranoside 2,3,4-trisphosphate [PP35-402]", "values": [{"measurement": "log Ks", "setting": "[2]", "result": 5.36}]}, {"compound": "COC[C@H]1OC(=O)c2coc3c2[C@@]1(C)C1=C(C3=O)[C@@H]2CCC(=O)[C@@]2(C)C[C@H]1OC(C)=O", "note": "[wortmannin, reference compound]", "values": [{"measurement": "PIF (interstitial fluid pressure)", "setting": "[3]", "result": "−2.5", "unit": "mm Hg"}]}, {"compound": "O=P(O)(O)OC1CN(CCc2ccccc2)CC(OP(=O)(O)O)C1OP(=O)(O)O", "note": "(stereo not drawn) [PP35-508, 1,5-dideoxy-1,5-imino-N-(2-phenylethyl)arabinitol-2,3,4-trisphosphate]", "values": [{"measurement": "inflammation retarded (increase in paw volume)", "setting": "[1]", "result": 27, "unit": "%"}]}, {"compound": "CCCCCC(=O)O[C@@H]1[C@@H](OC(=O)CCCCC)[C@@H](OP(=O)(O)O)[C@@H](OP(=O)(O)O)[C@H](OP(=O)(O)O)[C@H]1OC(=O)CCCCC", "note": "[PP10-202, D-3,4,5-tri-O-hexanoyl-myo-inositol-1,2,6-trisphosphate]", "values": [{"measurement": "log Ks", "setting": "[2]", "result": 4.20}, {"measurement": "HIV-infection", "setting": "[4]; 0.0625 mg/ml", "result": 75, "unit": "%"}, {"measurement": "HIV-infection", "setting": "[4]; 0.125 mg/ml", "result": 41, "unit": "%"}, {"measurement": "HIV-infection", "setting": "[4]; 0.250 mg/ml", "result": 33, "unit": "%"}, {"measurement": "HIV-infection", "setting": "[4]; 0.500 mg/ml", "result": 20, "unit": "%"}]}, {"compound": "CO[C@H]1O[C@H](C)[C@@H](OP(=O)(O)O)[C@H](OP(=O)(O)O)[C@@H]1OP(=O)(O)O", "note": "[PP 35-406, methyl α-D-rhamnopyranoside-2,3,4-trisphosphate]", "values": [{"measurement": "Percent protection (number of writhes)", "setting": "[5]", "result": 19, "unit": "%"}]}, {"compound": "O=C(Nc1ccccc1)O[C@@H]1[C@@H](OC(=O)Nc2ccccc2)[C@@H](OP(=O)(O)O)[C@@H](OP(=O)(O)O)[C@H](OP(=O)(O)O)[C@H]1OC(=O)Nc1ccccc1", "note": "[PP11-201, D-3,4,5-tri-O-phenylcarbamoyl-myo-inositol-1,2,6-trisphosphate]", "values": [{"measurement": "log Ks", "setting": "[2]", "result": 4.71}]}, {"compound": "1,2-O-ethylene-β-D-fructopyranoside-2,3,4-trisphosphate [PP35-405]", "values": [{"measurement": "inflammation retarded (increase in paw volume)", "setting": "[1]", "result": 51, "unit": "%"}]}]}
